Test results reported in paper PMC7483518, “Destabilizing single chain major histocompatibility complex class I protein for repurposed enterokinase proteolysis” (Scientific Reports, 2020).
Like-named read-outs stand apart in the source and are kept apart here.

Key:
[1] = tested on: HLA-A*11:01 single chain protein; type: biochemical, Human; parameters: EZ50kDa / EZ50kD (pH 6.2) / EZ50kD (pH 8) / EZ50kD (normalised: EBV1101 = 1, EBV0201 = 0) / EZ50kDa rank: unit not given beside the values; details: for EZ50kDa: Table 3, EGFR peptide library (n = 177, duplicated), pH 6.2, 37 °C, 14 h, enterokinase, Eq. (4);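 for EZ50kDa: intact 50 kDa band volume scaled with positive control peptide as 1 and negative as 0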
[2] = biological target: photolabile unchained HLA-A*11:01 pMHC-I protein (Homo sapiens, UniProt P04439, A114D/D185E/E176A/F33Y/L180Q/S129P/T187R); test: ELISA with photolabile unchained pMHC-I protein and UV irradiation; type: binding; details: for ELISA450nm: Table 2, 62.5 nM photolabile pMHC-I mixture, 5 μM peptide in PBS, UV 365 nm 2 × 5 min on ice, 2 h room temperature on anti-β2m plate, Abs450nm − Abs570nm, instability cutoff < 0.6
[3] = EASY MHC-I A*11:01, 2019-07-25, mean of the 2 replicates
[4] = EASY MHC-I A*11:01, run 2019-08-08, 5min, mean of 2 replicates
[5] = EASY MHC-I A*11:01, 2019-07-26, mean of the 2 replicates
[6] = EASY MHC-I A*11:01, run 2019-08-06, 5min, mean of 2 replicates
[7] = EASY MHC-I A*11:01, run 2019-08-07, 5min, mean of 2 replicates
[8] = EASY MHC-I A*11:01, gel 2019-07-17 lr1028-1036 5min, mean of 2 replicates
[9] = EASY MHC-I A*11:01, gel 2019-07-17 lr1028-1036 5min, replicate 1 (lanes 1-14)
[10] = EASY MHC-I A*11:01, gel 2019-07-17 lr1028-1036 5min, replicate 2 (lanes 15-28)

| Compound | EASY_mean ([2]; […], mean, STDEV) | EZ_mean [1] | EASY_mean [2] | further results |
| --- | --- | --- | --- | --- |
| AIKTSPKANK [EX1012, EGFR exon 19 deletion-derived peptide] | 0.01176 | – | – | EZ_mean [1, 3]: -0.007078 |
| PVAIKTSPKA [EX1010] | -0.007707 | – | – | EZ_mean [1, 3]: -0.04257 |
| RAKLLGAE [LR1008] | -0.01564 | -0.05335 | – | – |
| TQLMPFGSLLD [CS1031] | – | -0.07663 | -0.03382 | – |
| LTSTVQLIMQ [TM1019] | -0.02206 | – | – | EZ_mean [1, 4]: -0.0385; Norm_mean [1, 4]: -0.02611 |
| IKTSPKANKE [EX1013] | -0.007577 | – | – | EZ_mean [1, 3]: -0.04249 |
| IKTSPKANKEI [EX1020] | – | – | – | EZ_mean [1, 5]: -0.1313; EASY_mean ([2]; ELISA signal, mean, […]): -0.02309 |
| PFGSLLDYVR [CS1024] | – | -0.007587 | 0.06666 | – |
| LMPFGSLL [CS1003] | – | -0.06827 | 0.002317 | – |
| LIMQLMPFGCL [TM1036] | – | -0.1248 | – | EASY_mean ([2]; ELISA signal, mean, […]): -0.07162 |
| ITDFGRAKLLGA [LR1045] | – | -0.0656 | -0.00307 | – |
| KTSPKANK [EX1003, EGFR exon 19 deletion-derived peptide] | – | 0.03406 | 0.02773 | EZ50kDa [1]: 0.0341 ± 0.022 |
| STVQLIMQLMP [TM1032] | – | -0.1174 | – | EASY_mean ([2]; ELISA signal, mean, […]): -0.06602 |
| IMQLMPFG [TM1007] | – | – | – | EZ_mean [1, 6]: -0.09302; EASY_mean ([2]; ELISA signal, mean, […]): -0.02903 |
| TQLMPFGSLLDY [CS1043] | – | -0.01577 | 0.01363 | – |
| STVQLIMQ [TM1002] | -0.02917 | – | – | EZ_mean [1, 6]: -0.09047 |
| VQLIMQLMP [TM1013] | -0.03636 | – | – | EZ_mean [1, 7]: -0.1096 |
| TSTVQLIMQLMP [TM1042] | – | -0.1051 | – | EASY_mean ([2]; ELISA signal, mean, […]): -0.04181 |
| ITQLMPFGSL [CS1019] | – | -0.0702 | -0.007918 | – |
| FGRAKLLG [LR1006] | – | -0.05388 | – | EASY_mean ([2]; ELISA signal, mean, […]): -0.01563 |
| CLTSTVQLIMQ [TM1029] | – | -0.1239 | – | EASY_mean ([2]; ELISA signal, mean, […]): -0.0718 |
| LIMQLMPFGCLL [TM1048] | – | -0.1103 | -0.04956 | – |
| PFGSLLDY [CS1005] | – | -0.07269 | -0.004417 | – |

| Compound | EASY_mean ([2]; […], mean, STDEV) | EZ_mean [1] | EASY_mean [2] | further results |
| --- | --- | --- | --- | --- |
| GSLLDYVRE [CS1016] | – | -0.06376 | -0.02695 | – |
| SLLDYVRE [CS1008] | – | -0.06325 | -0.02238 | – |
| VQLIMQLMPFGC [TM1045] | – | -0.1164 | – | EASY_mean ([2]; ELISA signal, mean, […]): -0.05081 |
| VAIKTSPKA [EX1005] | 0.004482 | – | – | EZ_mean [1, 3]: -0.02025 |
| QLITQLMPFGS [CS1028] | – | -0.07904 | -0.02964 | – |
| KTSPKANKEIL [EX1021] | -0.001833 | – | – | EZ_mean [1, 5]: -0.102 |
| IMQLMPFGC [TM1016] | -0.02516 | – | – | EZ_mean [1, 7]: -0.08902 |
| LMPFGSLLDY [CS1022] | – | -0.05808 | 0.006828 | – |
| ICLTSTVQLIM [TM1028] | -0.04901 | -0.09759 | – | – |
| LIMQLMPF [TM1006] | -0.03127 | – | – | EZ_mean [1, 6]: -0.09815 |
| QLIMQLMPFGCL [TM1047] | – | -0.1111 | -0.05287 | – |
| CLTSTVQLIMQL [TM1040] | – | -0.1197 | – | EASY_mean ([2]; ELISA signal, mean, […]): -0.0545 |
| VQLIMQLMPFG [TM1034] | – | -0.1329 | – | EASY_mean ([2]; ELISA signal, mean, […]): -0.07888 |
| DFGRAKLLGAE [LR1035] | – | – | -0.05461 | EZ_mean [1, 8]: -0.0623; EZ50kD (normalised: EBV1101 = 1, EBV0201 = 0) [1, 9]: -0.08387; Norm (50 kDa band adj. volume normalised: Undig_37C = 1, Dig_37C = 0) [1, 9]: -0.0751; EZ50kD (normalised: EBV1101 = 1, EBV0201 = 0) [1, 10]: -0.04073; Norm (50 kDa band adj. volume normalised: Undig_37C = 1, Dig_37C = 0) [1, 10]: -0.03413 |
| TSPKANKEI [EX1009] | -0.005092 | – | – | EZ_mean [1, 3]: -0.03775 |
| QLIMQLMPF [TM1014] | -0.03038 | – | – | EZ_mean [1, 7]: -0.09931 |
| KITDFGRA [LR1002] | -0.007222 | -0.03733 | – | – |
| IPVAIKTSPKA [EX1016] | -0.002293 | – | – | EZ_mean [1, 5]: -0.1024 |
| LTSTVQLIMQL [TM1030] | -0.03337 | -0.07795 | – | – |
| RAKLLGAEEKEY [LR1050] | – | 0.007797 | 0.01434 | – |
| TQLMPFGSL [CS1010] | – | -0.05322 | -0.009401 | – |
| QLIMQLMPFGC [TM1035] | – | -0.1197 | – | EASY_mean ([2]; ELISA signal, mean, […]): -0.06893 |
| KITDFGRAKLL [LR1032] | – | – | 0.009234 | EZ_mean [1, 8]: 0.03523; EZ50kD (normalised: EBV1101 = 1, EBV0201 = 0) [1, 9]: 0.01844; Norm (50 kDa band adj. volume normalised: Undig_37C = 1, Dig_37C = 0) [1, 9]: -0.01259; EZ50kD (normalised: EBV1101 = 1, EBV0201 = 0) [1, 10]: 0.05201; Norm (50 kDa band adj. volume normalised: Undig_37C = 1, Dig_37C = 0) [1, 10]: 0.03105; EZ50kDa [1]: 0.0352 ± 0.024 |

| Compound | EASY_mean ([2]; […], mean, STDEV) | EZ_mean [1] | EASY_mean [2] | further results |
| --- | --- | --- | --- | --- |
| MQLMPFGC [TM1008] | – | – | – | EZ_mean [1, 6]: -0.09972; EASY_mean ([2]; ELISA signal, mean, […]): -0.0333 |
| AIKTSPKANKE [EX1019] | 0.001081 | – | – | EZ_mean [1, 5]: -0.09791 |
| STVQLIMQLMPF [TM1043] | -0.05995 | -0.1271 | – | – |
| GRAKLLGAE [LR1016] | – | -0.03777 | – | EASY_mean ([2]; ELISA signal, mean, […]): -0.02066 |
| FGRAKLLGAE [LR1025] | – | -0.04476 | – | EASY_mean ([2]; ELISA signal, mean, […]): -0.01153 |
| RAKLLGAEEKE [LR1038] | – | -0.07295 | -0.00823 | – |
| LTSTVQLIM [TM1009] | -0.03424 | – | – | EZ_mean [1, 6]: -0.1009 |
| QLITQLMPFGSL [CS1040] | – | -0.03735 | -0.0163 | – |
| DFGRAKLLGAEE [LR1047] | – | -0.04163 | -0.01199 | – |
| FGRAKLLGAEE [LR1036] | – | – | -0.04853 | EZ_mean [1, 8]: -0.05281; EZ50kD (normalised: EBV1101 = 1, EBV0201 = 0) [1, 9]: -0.07114; Norm (50 kDa band adj. volume normalised: Undig_37C = 1, Dig_37C = 0) [1, 9]: -0.06733; EZ50kD (normalised: EBV1101 = 1, EBV0201 = 0) [1, 10]: -0.03448; Norm (50 kDa band adj. volume normalised: Undig_37C = 1, Dig_37C = 0) [1, 10]: -0.02973 |
| TDFGRAKLL [LR1013] | -0.002506 | -0.005317 | – | – |
| GRAKLLGA [LR1007] | – | -0.06438 | – | EASY_mean ([2]; ELISA signal, mean, […]): -0.02108 |
| IMQLMPFGCL [TM1026] | – | – | – | EZ_mean [1, 4]: -0.06176; Norm_mean [1, 4]: -0.05556; EASY_mean ([2]; ELISA signal, mean, […]): -0.02435 |
| MQLMPFGCLLD [TM1038] | – | -0.125 | – | EASY_mean ([2]; ELISA signal, mean, […]): -0.0584 |
| LMPFGSLLDYV [CS1033] | – | -0.06309 | -0.01373 | – |
| TVQLIMQLMP [TM1022] | – | – | – | EZ_mean [1, 4]: -0.0531; Norm_mean [1, 4]: -0.04425; EASY_mean ([2]; ELISA signal, mean, […]): -0.01505 |
| RTQSPRRR [reference compound] | – | – | – | ELISA450nm [2]: 0.3319 |
| LLAQFTSAL [putative peptide, HBV, no IEDB entry] | – | – | – | ELISA450nm [2]: 0.214 |
| LNIDLLWSV [reference compound] | – | – | – | ELISA450nm [2]: 0.2738 |
| LMPFGSLLDYVR [CS1045] | – | – | 0.002285 | – |
| Nc1nc(Nc2ccc3c(c2)CC[C@@H](N2CCCC2)CC3)nn1-c1cc2c(nn1)-c1ccccc1CCC2 [CS1046] | -0.001122 | – | – | – |
| NILNPFLPLL [putative peptide, HBV, no IEDB entry] | – | – | – | ELISA450nm [2]: 0.2827 |
